Data taken from ChEMBL document CHEMBL1201862, “PubChem BioAssay data set” (2004).
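In this assay, cells in 96-well plates receive the compound at five concentrations for 48 hours. Endpoints are linearly interpolated between the surrounding concentrations. GI50 is the concentration that inhibits growth by half.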 Activity calls are given as the source filed them. Rule as the data show it: active = GI50 up to about 1.1 µM and inactive = higher.

How the values were obtained:
Experiment in all cases: inhibition of tumour cell growth, NCI panel, 48 h
CCRF-CEM = test system: CCRF-CEM
UACC-257 = test system: UACC-257
OVCAR-5 = test system: OVCAR-5
SN12C = test system: SN12C
NCI-H460 = test system: NCI-H460
UACC-62 = test system: UACC-62
PC-3 = test system: PC-3
NCI-H226 = test system: NCI-H226
Hs-578T = test system: Hs-578T
A498 = test system: A498
MCF7 = test system: MCF7
ACHN = test system: ACHN
SF-268 = test system: SF-268
MDA-MB-435 = test system: MDA-MB-435
SK-OV-3 = test system: SK-OV-3
T47D = test system: T47D
SK-MEL-5 = test system: SK-MEL-5
RPMI-8226 = test system: RPMI-8226
HCT-116 = test system: HCT-116
HT-29 = test system: HT-29

Row | SMILES | GI50 (CCRF-CEM) | GI50 (UACC-257) | GI50 (OVCAR-5) | GI50 (SN12C) | GI50 (NCI-H460) | GI50 (UACC-62) | GI50 (PC-3) | GI50 (NCI-H226) | GI50 (Hs-578T) | GI50 (A498) | GI50 (MCF7) | GI50 (ACHN) | GI50 (SF-268) | GI50 (MDA-MB-435) | GI50 (SK-OV-3) | GI50 (T47D) | GI50 (SK-MEL-5) | GI50 (RPMI-8226) | GI50 (HCT-116) | GI50 (HT-29)
1 | CC(=O)C(CN1CCOCC1)C(c1ccccc1)c1c(O)c2ccccc2oc1=O (stereo unspecified) | > 100 µM (inactive) | > 100 µM (inactive) | > 100 µM (inactive) | > 100 µM (inactive) | > 100 µM (inactive) | > 100 µM (inactive) | > 100 µM (inactive) | > 100 µM (inactive) | > 100 µM (inactive) | > 100 µM (inactive) | > 100 µM (inactive) | > 100 µM (inactive) | > 100 µM (inactive) | > 100 µM (inactive) | > 100 µM (inactive) | > 100 µM (inactive) | > 100 µM (inactive) | 43.1 µM (inactive) | > 100 µM (inactive) | > 100 µM (inactive)
2 | Cc1ccc(-c2cc(N)n(-c3nc4c(c(=O)n(C)c(=O)n4C)n3C)n2)cc1 | > 100 µM (inactive) | > 100 µM (inactive) | > 100 µM (inactive) | > 100 µM (inactive) | > 100 µM (inactive) | > 100 µM (inactive) | > 100 µM (inactive) | 86.1 µM (inactive) | 60.1 µM (inactive) | > 100 µM (inactive) | > 100 µM (inactive) | > 100 µM (inactive) | 43.7 µM (inactive) | > 100 µM (inactive) | 41 µM (inactive) | > 100 µM (inactive) | 32.4 µM (inactive) | > 100 µM (inactive) | > 100 µM (inactive) | > 100 µM (inactive)
3 | O=C(ON=C1c2ccccc2C(Br)C(Br)c2ccccc21)c1cc([N+](=O)[O-])cc([N+](=O)[O-])c1 (stereo unspecified) | 0.787 µM (active) | 18 µM (inactive) | 22.4 µM (inactive) | 18.5 µM (inactive) | 19.2 µM (inactive) | 18.7 µM (inactive) | 28.5 µM (inactive) | 24.9 µM (inactive) | 23 µM (inactive) | 17.6 µM (inactive) | 24.7 µM (inactive) | 21.3 µM (inactive) | 17.8 µM (inactive) | 18.5 µM (inactive) | 27.1 µM (inactive) | 35.2 µM (inactive) | 16.6 µM (inactive) | 6.81 µM (inactive) | 18.5 µM (inactive) | 16.3 µM (inactive)
4 | Cc1ccc(/C=N/n2c(-c3ccc(C)cc3)n[nH]c2=O)cc1 | 21.5 µM (inactive) | > 100 µM (inactive) | 84.9 µM (inactive) | 94.6 µM (inactive) | 21.5 µM (inactive) | 78 µM (inactive) | > 100 µM (inactive) | > 100 µM (inactive) | > 100 µM (inactive) | 26.9 µM (inactive) | > 100 µM (inactive) | 79.8 µM (inactive) | > 100 µM (inactive) | 47.2 µM (inactive) | 28.7 µM (inactive) | > 100 µM (inactive) | 38.1 µM (inactive) | > 100 µM (inactive) | 54 µM (inactive) | > 100 µM (inactive)
5 | Nc1ncc(Cl)c(NCC2(CO)CC(CCc3ccccc3)C2)n1 (stereo unspecified) | > 67.8 µM (inactive) | > 100 µM (inactive) | > 100 µM (inactive) | > 100 µM (inactive) | > 55 µM (inactive) | > 100 µM (inactive) | > 100 µM (inactive) | > 100 µM (inactive) | > 100 µM (inactive) | > 100 µM (inactive) | 0.438 µM (active) | 34 µM (inactive) | > 100 µM (inactive) | > 100 µM (inactive) | > 100 µM (inactive) | 1.07 µM (active) | 0.38 µM (active) | 2.79 µM (inactive) | 3.7 µM (inactive) | 
6 | CNC(=O)c1cc2nc3ccccc3c(=O)n2c2ccccc12 | > 10 µM (inactive) | > 10 µM (inactive) | > 10 µM (inactive) | > 10 µM (inactive) |  | > 10 µM (inactive) | > 10 µM (inactive) | > 10 µM (inactive) | > 10 µM (inactive) | > 10 µM (inactive) | > 10 µM (inactive) | > 10 µM (inactive) | > 10 µM (inactive) | > 10 µM (inactive) | > 10 µM (inactive) | > 10 µM (inactive) | > 10 µM (inactive) | > 10 µM (inactive) | > 10 µM (inactive) | > 10 µM (inactive)
7 | COc1cc(/C=C2\C[C@H]3[C@@H]4CC=C5C[C@@H](N6CCCC6)CC[C@]5(C)[C@H]4CC[C@]3(C)[C@H]2OC(C)=O)cc(OC)c1OC | 12.9 µM (inactive) | 19.6 µM (inactive) | 15.8 µM (inactive) | 14 µM (inactive) |  | 17.5 µM (inactive) | 14.2 µM (inactive) | 24.8 µM (inactive) | 17.8 µM (inactive) | 15.2 µM (inactive) | 15.9 µM (inactive) | 18.9 µM (inactive) | 14.6 µM (inactive) | 12.9 µM (inactive) | 15.3 µM (inactive) | 20.3 µM (inactive) | 15.1 µM (inactive) | 5.27 µM (inactive) | 15.5 µM (inactive) | 10 µM (inactive)
8 | COC[C@H]1C(=O)NCC(=O)N2N=CCC[C@H]2C(=O)N(O)[C@H](C)C(=O)O[C@@H](C(C)C)[C@H](NC(=O)[C@@](C)(O)[C@]2(O)CC[C@@H](CC(C)C)[C@H](C)O2)C(=O)N2NCCC[C@@H]2C(=O)N1O | 0.0216 µM (active) | 0.0184 µM (active) | 0.0178 µM (active) | 0.0185 µM (active) | 0.0166 µM (active) | 0.0176 µM (active) | 0.0175 µM (active) | 0.0197 µM (active) | 0.0179 µM (active) | 0.0412 µM (active) | 0.0168 µM (active) | 0.0324 µM (active) | 0.0163 µM (active) | 0.0164 µM (active) | 0.0273 µM (active) | 0.0228 µM (active) | 0.0156 µM (active) | 0.0208 µM (active) | 0.0134 µM (active) | 0.0172 µM (active)
9 | C[C@@H](CC(O)C(O)C(C)(C)O)C1CCC23CC12CCC1[C@@]2(C)CCC(=O)C(C)(C)C2CC(OC2OC(CO)C(O)C(O)C2O)[C@]13C (stereo partly specified) | > 10 µM (inactive) |  | > 10 µM (inactive) | > 10 µM (inactive) | > 10 µM (inactive) | > 10 µM (inactive) | > 10 µM (inactive) | > 10 µM (inactive) | > 10 µM (inactive) | > 10 µM (inactive) | > 10 µM (inactive) | > 10 µM (inactive) | > 10 µM (inactive) | > 10 µM (inactive) | > 10 µM (inactive) | > 10 µM (inactive) | > 10 µM (inactive) | > 10 µM (inactive) | > 10 µM (inactive) | > 10 µM (inactive)
10 | CC(=O)c1cc2c(s1)C(=O)c1ccccc1C2=O | 1.96 µM (inactive) | 1.57 µM (inactive) | 5.25 µM (inactive) | 2.59 µM (inactive) | 1.05 µM (active) | 2.51 µM (inactive) | 3.24 µM (inactive) | 2.61 µM (inactive) | 2.84 µM (inactive) | 29.3 µM (inactive) | 2.08 µM (inactive) | 1.36 µM (inactive) | 2.73 µM (inactive) | 0.791 µM (active) | 15.3 µM (inactive) | 4.42 µM (inactive) | 0.26 µM (active) | 2.38 µM (inactive) | 1.68 µM (inactive) | 3.4 µM (inactive)
